In ChEMBL document CHEMBL5365451, “Discovery of CVN417, a Novel Brain-Penetrant α6-Containing Nicotinic Receptor Antagonist for the Modulation of Motor Dysfunction” (J Med Chem, 2023):
pIC50: −log10 of the molar value. The source made the active and inactive calls. The rule behind the calls is not given here.

Legend:
[1] = Antagonist activity at human alpha6-alpha3/beta2/beta3 V273S mutant nAChR expressed in HEK293 cells assessed as nicotine-induced intracellular calcium release incubated for 15 mins by FLIPR analysis; format: cell-based; conditions: HEK293, 0.25 h
[2] = molecular target: Neuronal acetylcholine receptor; alpha3/beta4 (Homo sapiens, UniProt P30926+P32297); assay: Antagonist activity at human alpha3/beta4 nAChR expressed in HEK293 cells assessed as nicotine-induced intracellular calcium release incubated for 15 mins by FLIPR analysis; format: cell-based
[3] = molecular target: Neuronal acetylcholine receptor; alpha4/beta2 (Homo sapiens, UniProt P17787+P43681); assay: Antagonist activity at human alpha4/beta2 nAChR expressed in HEK293 cells assessed as nicotine-induced intracellular calcium release incubated for 15 mins by FLIPR analysis; format: cell-based
[4] = Metabolic stability in human liver microsome assessed as clearance preincubated for 60 mins followed by NADPH addition and measured after 60 mins by LC-MS/MS analysis; format: ADME; conditions: liver microsomes, time 120 min, read-out: CLH
[5] = Metabolic stability in rat liver microsome assessed as clearance preincubated for 60 mins followed by NADPH addition and measured after 60 mins by LC-MS/MS analysis; format: ADME; conditions: liver microsomes, time 120 min, read-out: CLH
[6] = Intrinsic clearance in Sprague-Dawley rat at 0.5 mg/kg, iv by LC-MS/MS analysis; format: ADME, organism-based; conditions: in vivo
[7] = Volume of distribution at steady state in Sprague-Dawley rat at 0.5 mg/kg, iv by LC-MS/MS analysis; format: ADME, organism-based; conditions: in vivo, read-out: Vdss
[8] = Oral bioavailability in Sprague-Dawley rat 3 mg/kg by LC-MS/MS analysis; format: ADME, organism-based; conditions: in vivo
[9] = Drug exposure in Sprague-Dawley rat brain at 3 mg/kg, po measured for 2 hrs by LC-MS/MS analysis; format: ADME, organism-based; conditions: read-out: Drug uptake
[10] = molecular target: T1, D(4) dopamine receptor (Homo sapiens) (UniProt P21917); assay: Antagonist activity at human D4 receptor relative to control; format: functional; set-up: scale not given: the % may be the effect or the level left; conditions: filed as antagonist
T1 sequence (whole entry): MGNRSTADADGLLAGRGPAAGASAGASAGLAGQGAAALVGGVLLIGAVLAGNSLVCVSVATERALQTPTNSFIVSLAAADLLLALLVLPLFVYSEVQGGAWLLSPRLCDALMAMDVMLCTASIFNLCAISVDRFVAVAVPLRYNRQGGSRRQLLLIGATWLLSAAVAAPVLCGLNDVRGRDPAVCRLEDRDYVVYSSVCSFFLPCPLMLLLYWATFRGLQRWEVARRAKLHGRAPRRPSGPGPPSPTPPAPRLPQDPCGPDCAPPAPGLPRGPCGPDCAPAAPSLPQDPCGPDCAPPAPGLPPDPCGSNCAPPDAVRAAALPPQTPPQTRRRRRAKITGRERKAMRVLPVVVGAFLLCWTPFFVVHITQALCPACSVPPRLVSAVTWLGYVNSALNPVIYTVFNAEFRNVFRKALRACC

Rattus norvegicus [11] = assay: Protection against tacrine-induced po dosed Sprague-Dawley rat tremulous jaw model assessed as decrease in tremor duration pretreated with compound for 90 mins followed by tacrine addition and measured after 5 mins; format: functional, organism-based; conditions: dose 3-25 mg/kg, time 95.0 min
Rattus norvegicus [12] = assay: Protection against tacrine-induced Sprague-Dawley rat tremulous jaw model assessed as decrease in tremor jaw movement at 3 to 25 mg/kg, po pretreated with compound for 90 mins followed by tacrine addition and measured after 5 mins; format: functional, organism-based; conditions: dose 3-25 mg/kg, time 95.0 min
Rattus norvegicus [13] = assay: Protection against tacrine-induced Sprague-Dawley rat tremulous jaw model assessed as decrease in tremor jaw movement at 25 mg/kg, po pretreated with compound for 90 mins followed by tacrine addition and measured after 5 mins; format: functional; set-up: scale not given: the % may be the effect or the level left; conditions: time 95 min, 1.583 h
Brain = assay: Drug concentration in po dosed Sprague-Dawley rat brain measured after 2 hrs by LC-MS/MS analysis; format: functional, organism-based; conditions: dose 3-25 mg/kg
[14] = Metabolic stability in human liver microsome assessed as intrinsic clearance preincubated for 60 mins followed by NADPH addition and measured after 60 mins by LC-MS/MS analysis; format: ADME; conditions: liver microsomes, time 120 min, read-out: CLH
[15] = Metabolic stability in rat liver microsome assessed as intrinsic clearance preincubated for 60 mins followed by NADPH addition and measured after 60 mins by LC-MS/MS analysis; format: ADME; conditions: liver microsomes, time 120 min, read-out: CLH
[16] = Metabolic stability in mouse liver microsome assessed as intrinsic clearance preincubated for 60 mins followed by NADPH addition and measured after 60 mins by LC-MS/MS analysis; format: ADME; conditions: liver microsomes, time 120 min, read-out: CLH
[17] = Metabolic stability in dog liver microsome assessed as intrinsic clearance preincubated for 60 mins followed by NADPH addition and measured after 60 mins by LC-MS/MS analysis; format: ADME, Canis lupus familiaris; conditions: liver microsomes, time 120 min, read-out: CLH
[18] = Metabolic stability in rat hepatocytes assessed as intrinsic clearance measured per 10^6 cells; format: ADME, cell-based, Hepatocyte
[19] = Metabolic stability in mouse hepatocytes assessed as intrinsic clearance measured per 10^6 cells; format: ADME, cell-based, Hepatocyte
[20] = Metabolic stability in dog hepatocytes assessed as intrinsic clearance measured per 10^6 cells; format: ADME, cell-based, Canis lupus familiaris, Hepatocyte
[21] = Metabolic stability in human hepatocytes assessed as intrinsic clearance measured per 10^6 cells; format: ADME, cell-based, Hepatocyte
[22] = Clearance in Sprague-Dawley rat at 0.5 mg/kg, iv by LC-MS/MS analysis; format: ADME, organism-based; conditions: in vivo
[23] = AUC (0 to infinity) in Sprague-Dawley rat at 0.5 mg/kg, iv by LC-MS/MS analysis; format: ADME, organism-based; set-up: dose 0.5 mg/kg, route iv; conditions: in vivo
[24] = Cmax in Sprague-Dawley rat at 10 mg/kg, po by LC-MS/MS analysis; format: ADME, organism-based; set-up: dose 10 mg/kg, route po; conditions: in vivo
[25] = AUC (0 to infinity) in Sprague-Dawley rat at 10 mg/kg, po by LC-MS/MS analysis; format: ADME, organism-based; set-up: dose 10 mg/kg, route po; conditions: in vivo
[26] = Oral bioavailability in Sprague-Dawley rat at 10 mg/kg by LC-MS/MS analysis; format: ADME, organism-based; conditions: in vivo
[27] = Half life in Sprague-Dawley rat at 10 mg/kg, po by LC-MS/MS analysis; format: ADME, organism-based; conditions: in vivo
[28] = Ratio of drug concentration in Sprague-Dawley rat brain to plasma assessed as unbound fraction at 10 mg/kg, po measured after 6 hrs by LC-MS/MS analysis; format: ADME, organism-based; conditions: read-out: K(p,uu,brain)
[29] = Volume of distribution at steady state in Sprague-Dawley rat at 1 mg/kg, iv by LC-MS/MS analysis; format: ADME, organism-based; conditions: in vivo, read-out: Vdss
[30] = AUC (0 to infinity) in Sprague-Dawley rat at 1 mg/kg, iv by LC-MS/MS analysis; format: ADME, organism-based; set-up: dose 1 mg/kg, route iv; conditions: in vivo
[31] = Oral bioavailability in Sprague-Dawley rat at 3 mg/kg by LC-MS/MS analysis; format: ADME, organism-based; conditions: in vivo
[32] = Half life in Sprague-Dawley rat at 3 mg/kg, po by LC-MS/MS analysis; format: ADME, organism-based; conditions: in vivo
[33] = Plasma protein binding in human assessed as unbound fraction by rapid equilibrium dialysis; format: ADME, cell-free
[34] = Plasma protein binding in rat assessed as unbound fraction by rapid equilibrium dialysis; format: ADME, cell-free
[35] = Plasma protein binding in mouse assessed as unbound fraction by rapid equilibrium dialysis; format: ADME, cell-free
[36] = Protein binding in rat brain assessed as unbound fraction by rapid equilibrium dialysis; format: ADME, tissue-based
[37] = Protein binding in mouse brain assessed as unbound fraction by rapid equilibrium dialysis; format: ADME, tissue-based
Rattus norvegicus [38] = species: Rattus norvegicus; assay: Antagonist activity at rat I2 receptor relative to control; set-up: scale not given: the % may be the effect or the level left; conditions: filed as antagonist
[39] = molecular target: T2, Sodium-dependent noradrenaline transporter (Homo sapiens, UniProt P23975); assay: Binding affinity to human NET relative to control
[40] = molecular target: Sigma non-opioid intracellular receptor 1 (Cavia porcellus) (UniProt Q60492); assay: Agonist activity at guinea pig sigma 1 relative to control; conditions: filed as agonist
[41] = molecular target: Neuronal acetylcholine receptor subunit alpha-7 (Homo sapiens) (UniProt P36544); assay: Antagonist activity at human alpha7 nAChR at 10 uM relative to control; set-up: scale not given: the % may be the effect or the level left
[42] = molecular target: T2, Sodium-dependent noradrenaline transporter; assay: Binding affinity to human NET
D(4) dopamine receptor = molecular target: T3, D(4) dopamine receptor (Homo sapiens, UniProt P21917); assay: Antagonist activity at human D4 receptor; format: functional
T3 sequence (P21917 whole entry): T1 sequence (whole entry)

Rattus norvegicus [43] = species: Rattus norvegicus; assay: Anti-parkinson activity in Sprague-Dawley rat model assessed as decrease in spontaneous firing frequency measured after 15 mins by whole cell patch assay; format: functional, organism-based
Mus musculus [44] = species: Mus musculus; assay: Anti-parkinson activity in C57BL6/J mouse model assessed as reduction in Ip induced DA release in striatum in presence of DHbetaE by fast-scan cyclic voltammetry analysis; format: functional, organism-based
Mus musculus [45] = species: Mus musculus; assay: Anti-parkinson activity in C57BL6/J mouse model assessed as reduction in Ip induced DA release in striatum by fast-scan cyclic voltammetry analysis; format: functional, organism-based
Mus musculus [46] = species: Mus musculus; assay: Anti-parkinson activity in C57BL6/J mouse model assessed as reduction in 5p 50 Hz induced DA release in striatum by fast-scan cyclic voltammetry analysis; format: functional, organism-based
Mus musculus [47] = species: Mus musculus; assay: Anti-parkinson activity in C57BL6/J mouse model assessed as reduction in 10p 50 Hz induced DA release in striatum by fast-scan cyclic voltammetry analysis; format: functional, organism-based

Sequence of Neuronal acetylcholine receptor; alpha3/beta4 (P30926 whole entry): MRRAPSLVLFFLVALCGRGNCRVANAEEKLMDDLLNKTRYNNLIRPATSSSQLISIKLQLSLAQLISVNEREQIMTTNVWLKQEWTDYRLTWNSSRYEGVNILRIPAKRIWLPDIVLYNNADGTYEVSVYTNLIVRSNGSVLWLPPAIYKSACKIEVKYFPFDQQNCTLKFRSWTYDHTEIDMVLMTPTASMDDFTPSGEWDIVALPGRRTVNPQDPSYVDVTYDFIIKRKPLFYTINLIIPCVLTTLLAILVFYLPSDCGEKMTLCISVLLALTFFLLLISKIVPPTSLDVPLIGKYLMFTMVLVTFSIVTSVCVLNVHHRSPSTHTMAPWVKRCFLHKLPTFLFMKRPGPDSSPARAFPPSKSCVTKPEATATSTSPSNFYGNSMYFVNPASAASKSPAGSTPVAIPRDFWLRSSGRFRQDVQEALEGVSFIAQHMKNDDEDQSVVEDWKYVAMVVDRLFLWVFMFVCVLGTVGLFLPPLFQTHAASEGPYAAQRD
Sequence of Neuronal acetylcholine receptor; alpha3/beta4 (P32297 whole entry): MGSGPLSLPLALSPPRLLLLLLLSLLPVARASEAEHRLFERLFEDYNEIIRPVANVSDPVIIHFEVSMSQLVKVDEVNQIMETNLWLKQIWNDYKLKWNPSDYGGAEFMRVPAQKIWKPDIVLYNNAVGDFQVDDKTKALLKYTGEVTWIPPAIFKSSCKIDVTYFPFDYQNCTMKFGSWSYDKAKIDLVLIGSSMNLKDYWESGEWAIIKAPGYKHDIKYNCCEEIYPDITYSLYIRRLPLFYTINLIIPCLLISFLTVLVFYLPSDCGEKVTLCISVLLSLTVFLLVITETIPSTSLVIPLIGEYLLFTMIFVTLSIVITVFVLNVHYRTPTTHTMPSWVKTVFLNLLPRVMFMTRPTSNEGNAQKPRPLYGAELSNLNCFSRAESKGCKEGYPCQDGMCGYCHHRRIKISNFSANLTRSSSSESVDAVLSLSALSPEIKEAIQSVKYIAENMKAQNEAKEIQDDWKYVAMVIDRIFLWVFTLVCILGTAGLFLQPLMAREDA
Sequence of Neuronal acetylcholine receptor; alpha4/beta2 (P17787 whole entry): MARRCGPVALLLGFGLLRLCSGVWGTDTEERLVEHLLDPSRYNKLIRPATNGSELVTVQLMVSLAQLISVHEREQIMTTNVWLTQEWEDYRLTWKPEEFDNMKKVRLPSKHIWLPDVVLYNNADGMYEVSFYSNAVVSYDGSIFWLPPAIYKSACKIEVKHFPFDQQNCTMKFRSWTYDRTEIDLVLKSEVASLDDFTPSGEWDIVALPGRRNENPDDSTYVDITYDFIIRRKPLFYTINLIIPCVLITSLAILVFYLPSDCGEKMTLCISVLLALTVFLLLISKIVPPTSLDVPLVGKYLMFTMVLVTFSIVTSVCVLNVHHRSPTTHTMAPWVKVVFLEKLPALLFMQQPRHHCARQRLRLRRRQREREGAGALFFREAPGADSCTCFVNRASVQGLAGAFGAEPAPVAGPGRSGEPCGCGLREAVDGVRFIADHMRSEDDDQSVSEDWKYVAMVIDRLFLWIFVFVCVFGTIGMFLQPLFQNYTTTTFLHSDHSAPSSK
Sequence of Neuronal acetylcholine receptor; alpha4/beta2 (P43681 whole entry): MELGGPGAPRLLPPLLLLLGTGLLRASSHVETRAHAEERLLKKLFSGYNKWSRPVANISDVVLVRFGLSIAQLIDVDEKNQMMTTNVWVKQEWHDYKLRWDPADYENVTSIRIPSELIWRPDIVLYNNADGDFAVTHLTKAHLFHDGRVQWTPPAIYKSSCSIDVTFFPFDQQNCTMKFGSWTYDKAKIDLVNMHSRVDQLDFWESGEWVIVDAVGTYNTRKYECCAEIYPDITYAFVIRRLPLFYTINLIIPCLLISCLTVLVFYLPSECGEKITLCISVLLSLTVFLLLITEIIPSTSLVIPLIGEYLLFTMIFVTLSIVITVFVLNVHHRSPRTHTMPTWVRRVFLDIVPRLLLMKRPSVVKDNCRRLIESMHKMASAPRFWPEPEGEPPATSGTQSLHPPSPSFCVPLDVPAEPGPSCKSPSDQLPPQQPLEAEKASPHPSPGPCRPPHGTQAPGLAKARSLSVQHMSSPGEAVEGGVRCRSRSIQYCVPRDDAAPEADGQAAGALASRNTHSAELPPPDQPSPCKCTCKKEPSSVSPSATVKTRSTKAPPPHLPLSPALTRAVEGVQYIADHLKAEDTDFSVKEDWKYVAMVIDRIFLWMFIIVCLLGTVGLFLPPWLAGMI
T2 sequence (P23975 whole entry): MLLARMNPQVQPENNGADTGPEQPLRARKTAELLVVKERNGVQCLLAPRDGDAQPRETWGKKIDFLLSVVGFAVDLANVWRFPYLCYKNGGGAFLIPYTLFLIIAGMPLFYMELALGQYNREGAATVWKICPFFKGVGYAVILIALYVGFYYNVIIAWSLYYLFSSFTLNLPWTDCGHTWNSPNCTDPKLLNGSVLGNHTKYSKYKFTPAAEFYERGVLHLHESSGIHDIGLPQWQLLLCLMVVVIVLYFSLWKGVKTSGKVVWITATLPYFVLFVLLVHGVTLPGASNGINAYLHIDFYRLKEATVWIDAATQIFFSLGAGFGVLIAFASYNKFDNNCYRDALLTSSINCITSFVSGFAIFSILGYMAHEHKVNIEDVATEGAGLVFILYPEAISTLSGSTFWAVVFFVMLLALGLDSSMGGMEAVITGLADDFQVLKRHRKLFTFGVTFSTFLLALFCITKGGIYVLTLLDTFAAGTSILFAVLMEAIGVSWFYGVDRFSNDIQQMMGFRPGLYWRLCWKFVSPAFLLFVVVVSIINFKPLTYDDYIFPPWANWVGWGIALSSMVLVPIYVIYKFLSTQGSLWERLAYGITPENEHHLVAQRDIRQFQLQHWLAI
Sequence of Neuronal acetylcholine receptor subunit alpha-7 (Homo sapiens) (P36544 whole entry): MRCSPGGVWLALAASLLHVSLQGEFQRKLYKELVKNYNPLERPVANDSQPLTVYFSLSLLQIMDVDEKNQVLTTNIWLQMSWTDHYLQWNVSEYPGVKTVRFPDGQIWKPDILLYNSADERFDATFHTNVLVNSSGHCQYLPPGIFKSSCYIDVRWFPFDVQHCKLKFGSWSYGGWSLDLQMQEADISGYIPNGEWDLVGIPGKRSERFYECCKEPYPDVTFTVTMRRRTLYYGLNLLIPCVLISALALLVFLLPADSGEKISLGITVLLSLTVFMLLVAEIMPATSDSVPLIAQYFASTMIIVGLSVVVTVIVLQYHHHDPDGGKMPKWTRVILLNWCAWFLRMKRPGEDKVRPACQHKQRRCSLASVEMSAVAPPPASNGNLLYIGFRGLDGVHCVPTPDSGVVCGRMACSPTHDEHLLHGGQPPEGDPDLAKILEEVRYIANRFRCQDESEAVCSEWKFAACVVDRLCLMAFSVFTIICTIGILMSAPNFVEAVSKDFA
Sequence of Sigma non-opioid intracellular receptor 1 (Cavia porcellus) (Q60492 whole entry): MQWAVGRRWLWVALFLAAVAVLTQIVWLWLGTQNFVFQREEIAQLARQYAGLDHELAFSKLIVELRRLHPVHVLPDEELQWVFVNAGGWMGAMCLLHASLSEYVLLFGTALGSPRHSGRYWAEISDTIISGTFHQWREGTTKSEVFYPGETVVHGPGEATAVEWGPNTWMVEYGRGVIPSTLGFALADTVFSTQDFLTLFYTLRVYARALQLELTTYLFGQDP

Cn1nc(C(=O)NCCN2CCCCC2)cc1-c1ccc(C(F)(F)F)cc1
pIC50 [1]: 7.22 | pIC50 [2]: 6.35 | pIC50 [3]: 5.50 | microsomal CLint [4]: 3.1 µL/min/mg | microsomal CLint [5]: 3.1 µL/min/mg | CL [6]: 64.9 mL/min/kg | Vd [7]: 29.8 L/kg | bioavailability [8]: 82% | concentration at 2 h [9]: 524 nM

COc1ccc(-c2cc(C(=O)N[C@H]3CCCN(C)C3)nn2C)c(Cl)c1
Activity [10]: 90% | pIC50 [1]: 7.07 | pIC50 [2]: 5.59 | pIC50 [3]: 6.18 | Vd [7]: 12.3 L/kg | concentration at 2 h [9]: 1820 nM | Activity (Rattus norvegicus [11]): Dose-Dependent Effect | Activity (Rattus norvegicus [12]): Active | Activity (Rattus norvegicus [13]): 18.9% | Drug uptake (Brain): Dose-Dependent Effect | microsomal CLint [14]: 2.8 µL/min/mg | microsomal CLint [15]: 31.2 µL/min/mg | microsomal CLint [16]: 33.3 µL/min/mg | microsomal CLint [17]: 27.7 µL/min/mg | CLint [18]: 20.8 µL/min/1e6 cells | CLint [19]: 25.1 µL/min/1e6 cells | CLint [20]: 32.3 µL/min/1e6 cells | CLint [21]: 3.7 µL/min/1e6 cells | clearance [22]: 38.2 mL/min/kg | AUC(0-inf) [23]: 205 ng·h/mL | Cmax [24]: 350 nM | AUC(0-inf) [25]: 775 ng·h/mL | bioavailability [26]: 11% | half-life [27]: 5.9 h | Kp uu at 6 h [28]: 1.4 | Vd [29]: 11.4 L/kg | AUC [30]: 13.5 ng·h/mL | bioavailability [31]: 43.8% | half-life [32]: 7.8 h | fraction unbound [33]: 0.3 | fraction unbound [34]: 0.202 | fraction unbound [35]: 0.25 | fraction unbound [36]: 0.068 | fraction unbound [37]: 0.053 | Activity (Rattus norvegicus [38]): 84% | Activity [39]: 62% | Activity [40]: 51% | Activity [41]: 13% | pIC50 [42]: 4.35 | pIC50 (D(4) dopamine receptor): 5.89 | Activity (Rattus norvegicus [43]): Active | Activity (Mus musculus [44]): Active | Activity (Mus musculus [45]): Active | Activity (Mus musculus [46]): Active | Activity (Mus musculus [47]): Active

CN1CCC(NC(=O)c2cc(-c3ccc(C(F)(F)F)cc3)n(C)n2)C1 (racemic)
pIC50 [1]: 6.88 | pIC50 [2]: 5.61 | pIC50 [3]: 5.11 | microsomal CLint [4]: 28.9 µL/min/mg | microsomal CLint [5]: 31.2 µL/min/mg | CL [6]: 47 mL/min/kg | Vd [7]: 18.5 L/kg | bioavailability [8]: 18.1% | concentration at 2 h [9]: 948 nM

COc1ccc(-c2cc(C(=O)N[C@H]3CCCN(C)C3)nn2C)cc1
pIC50 [1]: 6.71 | pIC50 [2]: < 5.00 | pIC50 [3]: 5.58

CN1CCC[C@@H](NC(=O)c2cc(-c3ccc(C(F)(F)F)cc3Cl)n(C)n2)C1
pIC50 [1]: 7.12
